Where “and” joins values, the source holds several entries; their conditions need not be identical. Identical values can stand only once. Counter-ions that a name gives are not always drawn. Like-named read-outs stand apart in the source and are kept apart here.
Columns and labels:
cdk2/cyclin E = biological target: T1, cdk2/cyclin E (Homo sapiens, UniProt P24941); test: Cyclin-Dependent Kinase 2 Assay (cdk2/cyclin E, GST-Rb substrate); type: biochemical; conditions: recombinant cdk2/cyclin E, 10 μM ATP, 30 min at 30° C., several values in a cell = separate determinations, read-out: CDK-2 Inhibition IC50
T1 construct: made in house; host or cells: insect cells (baculovirus co-infection)
Experimental: Substrate: GST-Rb as described above for cdk4/cyclin D1
Assay conditions for cdk2/cyclin E were identical to those for cdk4/cyclin D1 including the substrate. The concentration of recombinant cdk2/cyclin E in the assay was 0.1 μg per 100 μl assay. Incubation was for 30 min at 30° C.

cdk4/cyclin D1 = biological target: T2, cdk4/cyclin D1 (Homo sapiens, UniProt P11802); test: Cyclin-dependent Kinase 4 Assay (cdk4/cyclin D1, GST-Rb substrate); type: biochemical; conditions: cdk4/cyclin D1 insect cell lysate, 10 μM ATP, 30 min at 37° C., several values = separate determinations, read-out: CDK4 Inhibition IC50
T2 construct: made in house; host or cells: Sf9 insect cells (Bac-to-Bac baculovirus, pFastBac)
Outline: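 Insect-cell lysate of coexpressed cdk4/cyclin D1 (0.1 μg) acts on GST-Rb (0.5 μg) bound to glutathione-Sepharose, in 50 mM HEPES pH 7.5, 10 mM MgCl2, 1 mM EGTA. Reaction runs 30 min at 37 °C, then is stopped by filtration and TNEN washes. Rb phosphorylation read by scintillation counting; IC50 derived.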

MDA-MB-231 = test: In vitro tumor cell proliferation, MDA-MB-231; type: cell-based, human; conditions: sulforhodamine B or CyQUANT assay, many values given with an undefined *, read-out: In vitro Tumor Cell Proliferation (IC50, μM) Breast MDA-MB-231
Outline: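 Cells plated overnight at 37 °C, then exposed to drug for 3 days, refed with fresh drug and incubated 4 more days. Read-out by sulforhodamine B staining after TCA fixation; alternatively, CyQUANT after 3-day drug exposure and freezing at −80 °C.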

MDA-MB-435 = test: In vitro tumor cell proliferation, MDA-MB-435; type: cell-based; conditions: values given with an undefined *, read-out: In vitro Tumor Cell Proliferation (IC50, μM) Breast MDA-MB-435
Outline: (§1)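 Cells seeded overnight at 37° C, then exposed to drug diluted in medium; at 3 days medium and drug replenished for another 4 days. Growth read by sulforhodamine B staining after TCA fixation; alternatively by CyQUANT, with plates frozen at −80° C after 3 days of drug.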

HT-29 = test: In vitro tumor cell proliferation, HT-29; type: cell-based, human; conditions: many values given with an undefined *, read-out: In vitro Tumor Cell Proliferation (IC50, μM) Colon HT-29
Outline: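 HT-29 cells seeded overnight at 37° C, then exposed to drug for 3 days, refed with fresh drug-containing medium for 4 more days. Proliferation read by sulforhodamine B staining after TCA fixation; alternatively by CyQUANT after freezing plates at −80° C following 3 days' drug exposure.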

Colo-205 = test: In vitro tumor cell proliferation, Colo-205; type: cell-based; conditions: values given with an undefined *, read-out: In vitro Tumor Cell Proliferation (IC50, μM) Colon Colo-205
Outline: as §1

A549 = test: In vitro tumor cell proliferation, A549; type: cell-based, human; conditions: many values given with an undefined *, read-out: In vitro Tumor Cell Proliferation (IC50, μM) Lung A549
Outline: as §1

DMS-114 = test: In vitro tumor cell proliferation, DMS-114; type: cell-based, human; conditions: many values given with an undefined *, read-out: In vitro Tumor Cell Proliferation (IC50, μM) Lung DMS-114
Outline: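 Human small cell lung carcinoma DMS-114 cells plated overnight, then drug-treated for 3 days, medium and drug renewed, and incubated 4 more days. Growth read by sulforhodamine B staining after TCA fixation; alternatively by CyQUANT after 3 days' drug exposure and freezing at −80 °C.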

PC-3 = test: In vitro tumor cell proliferation, PC-3; type: cell-based, human; conditions: many values given with an undefined *, read-out: In vitro Tumor Cell Proliferation (IC50, μM) Prostate PC-3
Outline: as §1

DU145 = test: In vitro tumor cell proliferation, DU145; type: cell-based, human; conditions: many values given with an undefined *, read-out: In vitro Tumor Cell Proliferation (IC50, μM) Prostate DU145
Outline: as §1

[1] = Homo sapiens, MDA-MB-231, MDA-MB-231
[2] = Homo sapiens, MDA-MB-435, MDA-MB-435
[3] = Homo sapiens, COLO 205, Colo-205

T2 sequence (P11802 whole entry): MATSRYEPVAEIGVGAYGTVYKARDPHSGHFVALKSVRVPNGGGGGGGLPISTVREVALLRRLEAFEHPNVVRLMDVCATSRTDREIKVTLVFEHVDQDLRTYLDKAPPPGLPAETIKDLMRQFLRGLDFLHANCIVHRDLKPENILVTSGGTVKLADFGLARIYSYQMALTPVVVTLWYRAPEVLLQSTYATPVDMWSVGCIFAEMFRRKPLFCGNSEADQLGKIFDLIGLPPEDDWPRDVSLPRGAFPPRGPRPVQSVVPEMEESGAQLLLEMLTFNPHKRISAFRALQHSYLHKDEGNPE
T2 sequence (P24385 whole entry partner): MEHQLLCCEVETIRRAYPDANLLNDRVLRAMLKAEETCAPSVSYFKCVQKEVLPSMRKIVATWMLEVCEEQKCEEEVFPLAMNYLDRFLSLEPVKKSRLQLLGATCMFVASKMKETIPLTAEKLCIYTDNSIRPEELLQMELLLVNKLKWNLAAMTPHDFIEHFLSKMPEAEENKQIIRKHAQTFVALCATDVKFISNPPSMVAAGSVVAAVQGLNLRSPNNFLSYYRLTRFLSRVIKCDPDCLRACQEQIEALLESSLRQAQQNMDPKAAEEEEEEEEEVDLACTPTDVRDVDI

IC50 (cdk2/cyclin E)	IC50 (cdk4/cyclin D1)	IC50 (MDA-MB-231; [1]) [µM]	IC50 (MDA-MB-435; [2]) [µM]	IC50 (HT-29; Homo sapiens, HT-29, HT-29) [µM]	IC50 (Colo-205; [3]) [µM]	IC50 (A549; Homo sapiens, A549, A549) [µM]	IC50 (DMS-114; Homo sapiens, DMS-114, DMS-114) [µM]	IC50 (PC-3; Homo sapiens, PC-3, PC-3) [µM]	IC50 (DU145; Homo sapiens, DU-145, DU145) [µM]	IC50 (MDA-MB-231; MDA-MB-231, trihydrochloride)	IC50 (MDA-MB-435; MDA-MB-435, trihydrochloride)	IC50 (HT-29; HT-29, trihydrochloride)	IC50 (Colo-205; Colo-205, trihydrochloride)	IC50 (A549; A549, trihydrochloride)	IC50 (DMS-114; DMS-114, trihydrochloride)	IC50 (PC-3; PC-3, trihydrochloride)	IC50 (DU145; DU145, trihydrochloride)	SMILES	also measured
1100 nM and 900 nM	6700 nM	0.89	0.96	0.71	0.53	0.46	1.3	0.63	0.51									N[C@H]1CC[C@H](Nc2nc(NC3CCN(Cc4c(Cl)cccc4Cl)CC3)c3ncn(C4CCCC4)c3n2)CC1 [Example 45, 2-[Trans-(4-aminocyclohexyl)amino]-6-[4-(1-(2,6-dichlorobenzyl))piperidinylamino]-9-cyclopentylpurine]	IC50 (MDA-MB-231; MDA-MB-231): 0.71 µM; IC50 (MDA-MB-435; MDA-MB-435): 0.75 µM; IC50 (HT-29; HT-29): 0.55 µM; IC50 (Colo-205; Colo-205): 0.48 µM; IC50 (A549; A549): 0.32 µM; IC50 (DMS-114; DMS-114): 0.71 µM; IC50 (PC-3; PC-3): 0.74 µM; IC50 (DU145; DU145): 0.46 µM
340 nM and 230 nM and 460 nM	2700 nM and 4600 nM	0.58	0.62	0.59	0.34	0.35	0.58	0.47	0.35	0.3 µM	0.6 µM	0.3 µM	0.32 µM	0.3 µM	0.5 µM	0.35 µM	0.41 µM	N[C@H]1CC[C@H](Nc2nc(NC3CCN(Cc4cccc(F)c4F)CC3)c3ncn(C4CCCC4)c3n2)CC1 [Example 147-e, 2-[Trans-(4-aminocyclohexyl)amino]-6-[4-1-(2,3-difluorobenzyl)]piperidinylamino]-9-cyclopentylpurine trihydrochloride]	
160 nM and 340 nM and 440 nM	1600 nM and 3100 nM	0.81	0.89	0.71	0.44	0.39	1.1	0.73	0.6	0.72 µM	1 µM	0.64 µM	0.32 µM	0.33 µM	0.8 µM	0.93 µM	0.59 µM	N[C@H]1CC[C@H](Nc2nc(NC3CCN(Cc4c(F)cccc4Cl)CC3)c3ncn(C4CCCC4)c3n2)CC1 [Example 147-n, 2-[Trans-(4-aminocyclohexyl)amino]-6-[4-[1-(2-chloro-6-fluorobenzyl)]piperidinylamino]-cyclopentylpurine trihydrochloride]	
200 nM and 150 nM	1000 nM and 1200 nM and 2000 nM	0.24	0.37	0.25	0.19	0.16	0.27	0.21	0.22									N[C@H]1CC[C@H](Nc2nc(NC3CCN(Cc4cccc(Cl)c4)CC3)c3ncn(C4CCCC4)c3n2)CC1 [Example 42, 2-[Trans-(4-aminocyclohexyl)amino]-6-[4-(1-(3-chlorobenzyl))piperidinylamino]-9-cyclopentylpurine]	IC50 (MDA-MB-231; MDA-MB-231): 0.3 µM; IC50 (MDA-MB-435; MDA-MB-435): 0.44 µM; IC50 (HT-29; HT-29): 0.28 µM; IC50 (A549; A549): 0.14 µM; IC50 (DMS-114; DMS-114): 0.2 µM; IC50 (PC-3; PC-3): 0.34 µM; IC50 (DU145; DU145): 0.23 µM
										0.34 µM and 0.35 µM	0.47 µM and 0.55 µM	0.41 µM and 0.38 µM	0.32 µM and 0.35 µM	0.16 µM and 0.29 µM	0.4 µM and 0.45 µM	0.35 µM and 0.46 µM	0.33 µM and 0.35 µM	Cc1ccc(CN2CCC(Nc3nc(N[C@H]4CC[C@H](N)CC4)nc4c3ncn4C3CCCC3)CC2)cc1Cl [Example 147-y, 2-[Trans-(4-aminocyclohexyl)amino]-6-[4-[1-(3-chloro-4-methylbenzyl)]piperidinylamino]-9-cyclopentylpurine trihydrochloride]	IC50 (cdk2/cyclin E; trihydrochloride): 510 nM and 670 nM; IC50 (cdk4/cyclin D1; trihydrochloride): 5400 nM and 4800 nM
90 nM and 580 nM and 550 nM and 610 nM	7200 nM and 4300 nM		0.6	0.49	0.32	0.33	0.62	0.39	0.45	0.48 µM	0.65 µM	0.47 µM	0.38 µM		0.48 µM	0.55 µM	0.4 µM	N[C@H]1CC[C@H](Nc2nc(NC3CCN(Cc4cc(Cl)ccc4Cl)CC3)c3ncn(C4CCCC4)c3n2)CC1 [Example 147-r, 2-[Trans-(4-aminocyclohexyl)amino]-6-[4-[1-(2,5-dichlorobenzyl)]piperidinylamino]-9-cyclopentylpurine trihydrochloride]	
260 nM and 170 nM and 280 nM	2000 nM and 2700 nM and 1300 nM	0.33	0.46	0.37	0.26	0.26	0.48		0.3	0.29 µM		0.4 µM	0.19 µM	0.19 µM	0.43 µM	0.41 µM	0.29 µM	N[C@H]1CC[C@H](Nc2nc(NC3CCN(Cc4ccc(F)cc4)CC3)c3ncn(C4CCCC4)c3n2)CC1 [Example 147-l, 2-[Trans-(4-aminocyclohexyl)amino]-6-[4-[1-(4-fluorobenzyl)]piperidinylamino]-9-cyclopentylpurine trihydrochloride]	
